Columns and labels:
[1] = system: serum calcium, serum phosphorous and alkaline phosphatase; assay: Pharmacodynamics of PTH in Yorkshire pigs; assay type: in vivo; parameters: sCa / sP / sALP: unit not given here; conditions: for sALP / sCa / sP: Yorkshire pigs
Description: (§1) The serum calcium and serum phosphorous were estimated using Siemen's […] 744 Electrolyte Analyzer and for serum ALP Siemen's Dimension Expand Plus was used.
The pharmacodynamics data in subcutaneous and buccal/Sublingual groups are shown in Tables 21 and 22 and in FIGS. 63 and 64.

[2] = Pharmacokinetics of PTH (1-34) in SD rats, sugar truffle buccal/sublingual vs SC, plasma PTH (1-34) ELISA
Description: Pharmacokinetic analysis was conducted in female rats weighing 220-250 grams for 2 days. Rats in the oral treatment group was either fasted overnight or fed prior to the test sample administration. All the test animals in the treatment groups were administered with respective test formulation to the pre-designated animals. The animal was restrained and its head was held vertically, the jaws were pulled away, the tongue was gently lifted with a forceps followed by placement of a polypeptide formulation as described herein buccally/sublingually. After placing a polypeptide formulation as described herein, the snout was held together for about 1-2 mins to prevent the chewing of the polypeptide formulation. The time of dosage of each animal was noted. Blood samples were collected at aforementioned time points 0 min, 15 min, 30 min, 1 hour, 2 hours, 4 hours, 8 hours, 12 hours, 24 hours, and 48 hours into an EDTA-blood collection tubes for the separation of plasma to determine PTH (1-34) levels by ELISA. Plasma samples collected at different time points were analyzed by ELISA kit according to Creative Diagnostics protocol. This kit is based on sandwich enzyme-linked immuno-sorbent assay technology. An antibody, anti-PTH (1-34) was pre-coated onto a 96-well plate. Standards, test samples, and biotin-conjugated reagent were added to the wells and incubated. The HRP-conjugated reagent was then added, and the whole plate was incubated. Unbound conjugates were removed using wash buffer at each stage. TMB substrate was used to quantify the HRP enzymatic reaction. After TMB substrate was added, only wells that contain sufficient PTH (1-34) will produce a blue colored product, which then changes to yellow after adding the acidic stop solution. The intensity of the yellow color is proportional to the PTH (1-34) amount bound on the plate. The Optical Density (OD) was measured spectrophotometrically at 450 nm in a microplate reader, from which the concentration of PTH (1-34) can be calculated.
PTH (1-34) was analyzed in plasma using a specific enzyme linked immunosorbent assay (ELISA). Pharmacokinetic endpoints were determined using noncompartmental methods using PK Solutions software. AUC was approximated using the trapezoidal rule on the observed concentrations. C max for each PTH (1-34) dose was derived as the maximum of all valid concentrations, and t max was then determined as the corresponding time point to C max. The terminal elimination rate constant (λz) was estimated by log-linear regression on the terminal part of the concentration-time curve, and t ½ was then calculated as t ½=ln 2/λz.

[3] = system: serum calcium, serum phosphorous and alkaline phosphatase; assay: Pharmacodynamics of PTH in rats; assay type: in vivo, SD rats; parameters: sCa (serum calcium): unit not given here; conditions: for sALP (serum alkaline phosphatase) / sCa (serum calcium) / sP (serum phosphorous): subcutaneous 40 μg
Description: as §1
The pharmacodynamics data in subcutaneous and buccal/Sublingual groups of rats are shown in Tables 27 and 28 and in FIGS. 67 and 68.

[4] = Buccal/Sublingual Sugar Truffle Shell (0.49 mg), 0 h
[5] = Buccal/Sublingual Sugar Truffle Shell (0.49 mg), 0.08 h
[6] = Buccal/Sublingual Sugar Truffle Shell (0.49 mg), 0.5 h
[7] = Buccal/Sublingual Sugar Truffle Shell (0.49 mg), 1 h
[8] = Buccal/Sublingual Sugar Truffle Shell (0.49 mg), 2 h
[9] = Buccal/Sublingual Sugar Truffle Shell (0.49 mg), 4 h
[10] = Buccal/Sublingual Sugar Truffle Shell (0.49 mg), 8 h
[11] = Buccal/Sublingual Sugar Truffle Shell (0.49 mg), 24 h
[12] = female, SD, rat, plasma, 0.49 mg
[13] = female, SD, rat, plasma, sc, 0.04 mg

Which results are given for `CC[C@H](C)[C@H](NC(=O)[C@H](CCC(=O)O)NC(=O)[C@H](CO)NC(=O)[C@@H](NC(=O)[C@@H](N)CO)C(C)C)C(=O)N[C@@H](CCC(N)=O)C(=O)N[C@@H](CC(C)C)C(=O)N[C@@H](CCSC)C(=O)N[C@@H](Cc1cnc[nH]1)C(=O)N[C@@H](CC(N)=O)C(=O)N[C@@H](CC(C)C)C(=O)NCC(=O)N[C@@H](CCCCN)C(=O)N[C@@H](Cc1cnc[nH]1)C(=O)N[C@@H](CC(C)C)C(=O)N[C@@H](CC(N)=O)C(=O)N[C@@H](CO)C(=O)N[C@@H](CCSC)C(=O)N[C@@H](CCC(=O)O)C(=O)N[C@@H](CCCN=C(N)N)C(=O)N[C@H](C(=O)N[C@@H](CCC(=O)O)C(=O)N[C@@H](Cc1c[nH]c2ccccc12)C(=O)N[C@@H](CC(C)C)C(=O)N[C@@H](CCCN=C(N)N)C(=O)N[C@@H](CCCCN)C(=O)N[C@@H](CCCCN)C(=O)N[C@@H](CC(C)C)C(=O)N[C@@H](CCC(N)=O)C(=O)N[C@@H](CC(=O)O)C(=O)N[C@H](C(=O)N[C@@H](Cc1cnc[nH]1)C(=O)N[C@@H](CC(N)=O)C(=O)N[C@@H](Cc1ccccc1)C(=O)O)C(C)C)C(C)C` [PTH (1-34)]?
sALP [1, 4]: 170.55 ± 12.85; sCa [1, 4]: 9.46 ± 0.4; sP [1, 4]: 10.52 ± 0.33; sALP [1, 5]: 193.5 ± 9.32; sCa [1, 5]: 10.05 ± 0.17; sP [1, 5]: 9.87 ± 0.15; sALP [1, 6]: 170.25 ± 10.81; sCa [1, 6]: 9.77 ± 0.12; sP [1, 6]: 8.82 ± 0.17; sALP [1, 7]: 148.5 ± 11.9; sCa [1, 7]: 9.62 ± 0.04; sP [1, 7]: 8.3 ± 0.16; sALP [1, 8]: 137.75 ± 9.67; sCa [1, 8]: 9.25 ± 0.26; sP [1, 8]: 9.1 ± 0.49; sALP [1, 9]: 131 ± 11.91; sCa [1, 9]: 9.3 ± 0.34; sP [1, 9]: 9 ± 0.11; sALP [1, 10]: 128 ± 14.02; sCa [1, 10]: 9.17 ± 0.26; sP [1, 10]: 8.97 ± 0.17; sALP [1, 11]: 126.5 ± 15.28; sCa [1, 11]: 9 ± 0.18; sP [1, 11]: 9.02 ± 0.14; sALP ([1]; Subcutaneous (40 μg), 0 h): 116.5 ± 6.36; sCa ([1]; Subcutaneous (40 μg), 0 h): 9.35 ± 0.63; sP ([1]; Subcutaneous (40 μg), 0 h): 10.7 ± 0.14; sALP ([1]; Subcutaneous (40 μg), 0.08 h): 119.5 ± 2.12; sCa ([1]; Subcutaneous (40 μg), 0.08 h): 9.65 ± 0.77; sP ([1]; Subcutaneous (40 μg), 0.08 h): 10.52 ± 0.17; sALP ([1]; Subcutaneous (40 μg), 0.5 h): 134.5 ± 17.67; sCa ([1]; Subcutaneous (40 μg), 0.5 h): 9.95 ± 0.49; sP ([1]; Subcutaneous (40 μg), 0.5 h): 9.8 ± 0.28; sALP ([1]; Subcutaneous (40 μg), 1 h): 158 ± 38.18; sCa ([1]; Subcutaneous (40 μg), 1 h): 10.4 ± 0.14; sP ([1]; Subcutaneous (40 μg), 1 h): 9 ± 0.84; sALP ([1]; Subcutaneous (40 μg), 2 h): 152.5 ± 36.06; sCa ([1]; Subcutaneous (40 μg), 2 h): 10.3 ± 0.14; sP ([1]; Subcutaneous (40 μg), 2 h): 10.25 ± 1.06; sALP ([1]; Subcutaneous (40 μg), 4 h): 141.5 ± 33.23; sCa ([1]; Subcutaneous (40 μg), 4 h): 9.9 ± 0.42; sP ([1]; Subcutaneous (40 μg), 4 h): 11 ± 0; sALP ([1]; Subcutaneous (40 μg), 8 h): 133.5 ± 23.33; sCa ([1]; Subcutaneous (40 μg), 8 h): 9.5 ± 0.28; sP ([1]; Subcutaneous (40 μg), 8 h): 11.4 ± 0.28; sALP ([1]; Subcutaneous (40 μg), 24 h): 114.5 ± 3.53; sCa ([1]; Subcutaneous (40 μg), 24 h): 9.4 ± 0.28; sP ([1]; Subcutaneous (40 μg), 24 h): 11.6 ± 0.28; PD effect on serum calcium, serum phosphorous and serum alkaline phosphatase ([1]; pigs, PTH given by buccal/sublingual route): clearly indicates the effect on serum calcium, serum phosphorous and serum alkaline phosphatase; level at 5 min [2, 12]: 3510 pg/mL; level at 0.5 h [2, 12]: 3070 pg/mL; level at 1 h [2, 12]: 2870 pg/mL; level at 2 h [2, 12]: 1630 pg/mL; level at 4 h [2, 12]: 214 pg/mL; level at 8 h [2, 12]: 33.7 pg/mL; level at 24 h [2, 12]: 6.02 pg/mL; bioavailability ([2]; female, SD, rat, plasma, other: buccal/sublingual, 0.49 mg): 7%; MRT last [2, 13]: 2.02 h; Tmax [2, 13]: 0.5 h; half-life [2, 13]: 4.46 h; level at 0 h [2, 13]: 0.002 pg/mL; level at 5 min [2, 13]: 403 pg/mL; level at 0.5 h [2, 13]: 3400 pg/mL; level at 1 h [2, 13]: 3270 pg/mL; level at 2 h [2, 13]: 2930 pg/mL; level at 4 h [2, 13]: 167 pg/mL; level at 8 h [2, 13]: 50.9 pg/mL; level at 24 h [2, 13]: 6.2 pg/mL; AUC(0-inf) ([2]; female, SD, rat, plasma, sc, 0.04 mg, AUC 0-inf_obs, rats): 9.61 ng·h/mL; AUC(0-inf) ([2]; female, SD, rat, plasma, sc, 0.04 mg, AUC 0-inf_pred, rats): 9.61 ng·h/mL; AUC 0-t ([2]; female, SD, rat, plasma, sc, 0.04 mg, AUC 0-t, rats): 9.57 ng·h/mL; AUC(t-inf) ([2]; female, SD, rat, plasma, sc, 0.04 mg, AUC t-inf_obs, rats): 0.0399 ng·h/mL; AUC(t-inf) ([2]; female, SD, rat, plasma, sc, 0.04 mg, AUC t-inf_pred, rats): 0.0375 ng·h/mL; MRT inf ([2]; female, SD, rat, plasma, sc, 0.04 mg, MRT 0-inf_obs, rats): 2.13 h; MRT inf ([2]; female, SD, rat, plasma, sc, 0.04 mg, MRT 0-inf_pred, rats): 2.13 h; Mean PTH (1-34) levels ([2]; rats, GII - Buccal/sublingual 0.49 mg, 0 min): 0.000 pg/mL; AUMC 0-inf_obs ([2]; rats, SC, 0.04 mg): 20516.940 pg/mL*h^2; AUMC 0-inf_pred ([2]; rats, SC, 0.04 mg): 20442.395 pg/mL*h^2; AUMC 0-t ([2]; rats, SC, 0.04 mg): 19300.931 pg/mL*h^2; AUMC 0-t/0-inf_obs ([2]; rats, SC, 0.04 mg): 0.941; AUMC 0-t/0-inf_pred ([2]; rats, SC, 0.04 mg): 0.944; AUMC t-inf_obs ([2]; rats, SC, 0.04 mg): 1216.009 pg/mL*h^2; AUMC t-inf_pred ([2]; rats, SC, 0.04 mg): 1141.464 pg/mL*h^2; Clast_obs ([2]; rats, SC, 0.04 mg): 6.201 pg/mL; Clast_pred ([2]; rats, SC, 0.04 mg): 5.821 pg/mL; Cmax ([2]; rats, SC, 0.04 mg): 3401.092 pg/mL; Lambda_z ([2]; rats, SC, 0.04 mg): 0.155 h⁻¹; Tlag ([2]; rats, SC, 0.04 mg): 0.000 h; Tlast ([2]; rats, SC, 0.04 mg): 24.000 h; PD effect on serum calcium, serum phosphorous and serum alkaline phosphatase ([3]; PTH given by buccal/sublingual route): clearly indicates the effect on serum calcium, serum phosphorous and serum alkaline phosphatase; sALP (serum alkaline phosphatase) ([3]; time 0 hours): 98.5 ± 33.23; sCa (serum calcium) ([3]; time 0 hours): 9.05 ± 0.07; sP (serum phosphorous) ([3]; time 0 hours): 9.3 ± 0.28; sALP (serum alkaline phosphatase) ([3]; time 0.08 hours): 131 ± 1.41; sCa (serum calcium) ([3]; time 0.08 hours): 9.65 ± 0.77; sP (serum phosphorous) ([3]; time 0.08 hours): 8.85 ± 0.07; sALP (serum alkaline phosphatase) ([3]; time 0.5 hours): 136 ± 7.07; sCa (serum calcium) ([3]; time 0.5 hours): 10.2 ± 0.28; sP (serum phosphorous) ([3]; time 0.5 hours): 8.45 ± 0.21; sALP (serum alkaline phosphatase) ([3]; time 1 hours): 142 ± 5.65; sCa (serum calcium) ([3]; time 1 hours): 10.35 ± 0.35; sP (serum phosphorous) ([3]; time 1 hours): 4.85 ± 0.91; sALP (serum alkaline phosphatase) ([3]; time 2 hours): 184.5 ± 16.26; sCa (serum calcium) ([3]; time 2 hours): 10.45 ± 0.35; sP (serum phosphorous) ([3]; time 2 hours): 5.75 ± 1.06; sALP (serum alkaline phosphatase) ([3]; time 4 hours): 151 ± 21.21; sCa (serum calcium) ([3]; time 4 hours): 9.45 ± 0.21; sP (serum phosphorous) ([3]; time 4 hours): 8.65 ± 0.21; sALP (serum alkaline phosphatase) ([3]; time 8 hours): 131.5 ± 14.84; sCa (serum calcium) ([3]; time 8 hours): 9.25 ± 0.35; sP (serum phosphorous) ([3]; time 8 hours): 8.95 ± 0.07; sALP (serum alkaline phosphatase) ([3]; time 24 hours): 111 ± 21.21; sCa (serum calcium) ([3]; time 24 hours): 9.05 ± 0.21; sP (serum phosphorous) ([3]; time 24 hours): 9.35 ± 0.07

Source: patent US20240122847A1, “ORAL POLYPEPTIDE FORMULATIONS” (Bhami's Research Laboratory, Pvt. Ltd., priority 2022, published 2024)
